Reference: article PMC3402541, “Guanidylation and Tail Effects in Cationic Antimicrobial Lipopeptoids” (PLoS ONE, 2012)
Values after ≈ are worked out from the molar mass of the structure shown. Where a SMILES comes first, the peptide text is derived from it. [ ]: non-standard residue; d: D form. The star is where a group is joined. Palmitoyl = CCCCCCCCCCCCCCCC(=O)*; Nlys = NCCCCNCC(=O)O

How the values were obtained:
E. faecium ATCC 27270 = assay type: cell-based; settings: ATCC 27270, 24 h
Method in brief: (§1)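 Minimum inhibitory concentrations come from CLSI macrobroth testing at 37°C for 24 hr, in cation-adjusted Mueller-Hinton broth inoculated at about 5 x 10^5 CFU/mL. Performed once.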

MRSE CAN-ICU 61589 = assay type: cell-based, methicillin-resistant S. epidermidis; settings: CAN-ICU 61589, 24 h
Method in brief: as §1

P.aeruginosa ATCC 27853 = assay type: cell-based, Pseudomonas aeruginosa; settings: ATCC 27853, 24 h
Method in brief: as §1

[1] = system: P.aeruginosa CAN-ICU 62308; assay type: cell-based, Pseudomonas aeruginosa; settings: CAN-ICU 62308, 24 h
Method in brief: as §1

[2] = system: A. baumannii CAN-ICU 63169; assay type: cell-based, Acinetobacter baumannii; settings: CAN-ICU 63169, 24 h
Method in brief: as §1

MRSA ATCC 33592 = assay type: cell-based, methicillin-resistant S. aureus; settings: ATCC 33592, 24 h
Method in brief: as §1

E. faecalis ATCC 29212 = assay type: cell-based, Enterococcus faecalis; settings: ATCC 29212, 24 h
Method in brief: as §1

ovine erythrocytes = test: Haemolytic assay; assay type: cell-based, sheep; settings: ovine erythrocytes in Tris buffered saline, 30 minutes, absorbance of supernatant at 540 nm
Method in brief: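 Washed sheep erythrocytes in Tris-buffered saline exposed to compound (50 μg/mL–1 mg/mL; final 4.08 x 10^8 cells/mL) for 30 min. After centrifugation, supernatant absorbance at 540 nm gave % haemolysis; 0.5% ammonium chloride as positive control.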

MSSE 81388 CANWARD 2008 = assay type: cell-based, methicillin-susceptible S. epidermidis; settings: 24 h
Method in brief: as §1

K.pneumoniae ATCC 13883 = assay type: cell-based, Klebsiella pneumoniae; settings: ATCC 13883, 24 h
Method in brief: as §1

[3] = system: all three strains of E. coli; assay type: cell-based, Escherichia coli; settings: 24 h
Method in brief: (§2)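 Lipopeptoids, from stocks at 512 µg/mL in water (DMSO where needed), were serially doubled in cation-adjusted Mueller-Hinton broth and inoculated to approximately 5 x 10^5 CFU/mL. MIC read after 24 hr at 37°C.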

E.coli CAN-ICU 61714 = assay type: cell-based, Escherichia coli; settings: CAN-ICU 61714, 24 h
Method in brief: as §1

E.coli ATCC 25922 = assay type: cell-based, Escherichia coli; settings: ATCC 25922, 24 h
Method in brief: as §1

E.coli CAN-ICU 63074 = assay type: cell-based, Escherichia coli; settings: CAN-ICU 63074, 24 h
Method in brief: as §1

S.pneumoniae ATCC 49619 = assay type: cell-based, Streptococcus pneumoniae; settings: ATCC 49619, 24 h
Method in brief: as §1

[4] = system: S. maltophilia CAN-ICU 62584; assay type: cell-based, Stenotrophomonas maltophilia; settings: CAN-ICU 62584, 24 h
Method in brief: as §1

S.aureus ATCC 29213 = assay type: cell-based, Staphylococcus aureus; settings: ATCC 29213, 24 h
Method in brief: as §1

S. epidermidis = assay type: cell-based; settings: 24 h
Method in brief: as §2

MIC E. faecium (E. faecium ATCC 27270) | MIC E. faecium in the presence of 4% bovine serum albumin (E. faecium ATCC 27270) | MIC MRSE (MRSE CAN-ICU 61589) | MIC MRSE in the presence of 4% bovine serum albumin (MRSE CAN-ICU 61589) | MIC P.aeruginosa (P.aeruginosa ATCC 27853) | MIC P.aeruginosa in the presence of 4% bovine serum albumin (P.aeruginosa ATCC 27853) | MIC P.aeruginosa [1] | MIC P.aeruginosa in the presence of 4% bovine serum albumin [1] | MIC A. baumannii [2] | MIC A. baumannii in the presence of 4% bovine serum albumin [2] | MIC MRSA (MRSA ATCC 33592) | MIC MRSA in the presence of 4% bovine serum albumin (MRSA ATCC 33592) | MIC E. faecalis (E. faecalis ATCC 29212) | MIC E. faecalis in the presence of 4% bovine serum albumin (E. faecalis ATCC 29212) | MIC MSSE (MSSE 81388 CANWARD 2008) | MIC MSSE in the presence of 4% bovine serum albumin (MSSE 81388 CANWARD 2008) | MIC K.pneumoniae (K.pneumoniae ATCC 13883) | MIC K.pneumoniae in the presence of 4% bovine serum albumin (K.pneumoniae ATCC 13883) | MIC E.coli (E.coli CAN-ICU 61714) | SMILES | Percent haemolysis at 100µg/mL of compound (ovine erythrocytes) | also measured
16 µg/mL (≈ 24.5 µM) | 512 µg/mL | 16 µg/mL (≈ 24.5 µM) | 512 µg/mL | 64 µg/mL (≈ 98 µM) | >512 µg/mL | 64 µg/mL (≈ 98 µM) | >512 µg/mL | 128 µg/mL (≈ 196 µM) | >512 µg/mL | 8 µg/mL (≈ 12.3 µM) | 512 µg/mL | 16 µg/mL (≈ 24.5 µM) | 512 µg/mL | 8 µg/mL (≈ 12.3 µM) | 512 µg/mL | 64 µg/mL (≈ 98 µM) | 512 µg/mL | 16 µg/mL (≈ 24.5 µM) | CCCCCCCCCCCCCCCC(=O)N(CCCCNC(=N)N)CC(=O)NCC(=O)N(CCCCNC(=N)N)CC(N)=O [C16-NhargGNharg] | 61.06% | MIC against all three strains of E. coli [3]: 16 µg/mL; MIC E.coli in the presence of 4% bovine serum albumin (E.coli CAN-ICU 61714): 512 µg/mL; MIC E.coli (E.coli ATCC 25922): 16 µg/mL (≈ 24.5 µM); MIC E.coli in the presence of 4% bovine serum albumin (E.coli ATCC 25922): 512 µg/mL; MIC E.coli (E.coli CAN-ICU 63074): 16 µg/mL (≈ 24.5 µM); MIC E.coli in the presence of 4% bovine serum albumin (E.coli CAN-ICU 63074): 512 µg/mL; MIC S.pneumoniae (S.pneumoniae ATCC 49619): 128 µg/mL (≈ 196 µM); MIC S.pneumoniae in the presence of 4% bovine serum albumin (S.pneumoniae ATCC 49619): 512 µg/mL; MIC S. maltophilia [4]: 64 µg/mL (≈ 98 µM); MIC S. maltophilia in the presence of 4% bovine serum albumin [4]: >512 µg/mL; MIC S.aureus (S.aureus ATCC 29213): 8 µg/mL (≈ 12.3 µM); MIC S.aureus in the presence of 4% bovine serum albumin (S.aureus ATCC 29213): 512 µg/mL
16 µg/mL (≈ 28.1 µM) | 512 µg/mL | 16 µg/mL (≈ 28.1 µM) | 512 µg/mL | 64 µg/mL (≈ 113 µM) | >512 µg/mL | 128 µg/mL (≈ 225 µM) | >512 µg/mL | 128 µg/mL (≈ 225 µM) | >512 µg/mL | 16 µg/mL (≈ 28.1 µM) | 512 µg/mL | 16 µg/mL (≈ 28.1 µM) | 512 µg/mL | 8 µg/mL (≈ 14.1 µM) | 512 µg/mL | 64 µg/mL (≈ 113 µM) | >512 µg/mL | 16 µg/mL (≈ 28.1 µM) | CCCCCCCCCCCCCCCC(=O)N(CCCCN)CC(=O)NCC(=O)N(CCCCN)CC(N)=O [C16-NlysGNlys] (Palmitoyl-[Nlys]-Gly-[Nlys]-NH2) | 56.03% | MIC against all three strains of E. coli [3]: 16 µg/mL; MIC E.coli in the presence of 4% bovine serum albumin (E.coli CAN-ICU 61714): 512 µg/mL; MIC E.coli (E.coli ATCC 25922): 16 µg/mL (≈ 28.1 µM); MIC E.coli in the presence of 4% bovine serum albumin (E.coli ATCC 25922): 512 µg/mL; MIC E.coli (E.coli CAN-ICU 63074): 16 µg/mL (≈ 28.1 µM); MIC E.coli in the presence of 4% bovine serum albumin (E.coli CAN-ICU 63074): 512 µg/mL; MIC S.pneumoniae (S.pneumoniae ATCC 49619): 128 µg/mL (≈ 225 µM); MIC S.pneumoniae in the presence of 4% bovine serum albumin (S.pneumoniae ATCC 49619): 512 µg/mL; MIC S. maltophilia [4]: 128 µg/mL (≈ 225 µM); MIC S. maltophilia in the presence of 4% bovine serum albumin [4]: >512 µg/mL; MIC S.aureus (S.aureus ATCC 29213): 8 µg/mL (≈ 14.1 µM); MIC S.aureus in the presence of 4% bovine serum albumin (S.aureus ATCC 29213): 512 µg/mL
16 µg/mL (≈ 23 µM) | 256 µg/mL | 8 µg/mL (≈ 11.5 µM) | 128 µg/mL | 128 µg/mL (≈ 184 µM) | 512 µg/mL | 64 µg/mL (≈ 91.9 µM) | 512 µg/mL | 64 µg/mL (≈ 91.9 µM) | 512 µg/mL | 16 µg/mL (≈ 23 µM) | 256 µg/mL | 16 µg/mL (≈ 23 µM) | 256 µg/mL | 8 µg/mL (≈ 11.5 µM) | 128 µg/mL | 64 µg/mL (≈ 91.9 µM) | 256 µg/mL | 32 µg/mL (≈ 46 µM) | CCCCCCCCCCCCCCCCCCCC(=O)N(CCCCN)CC(=O)N(CCCCN)CC(=O)N(CCCCN)CC(N)=O [C20-NlysNlysNlys] | 68.29% | MIC against S. epidermidis with BSA (S. epidermidis): 128 µg/mL; MIC E.coli in the presence of 4% bovine serum albumin (E.coli CAN-ICU 61714): 256 µg/mL; MIC E.coli (E.coli ATCC 25922): 32 µg/mL (≈ 46 µM); MIC E.coli in the presence of 4% bovine serum albumin (E.coli ATCC 25922): 256 µg/mL; MIC E.coli (E.coli CAN-ICU 63074): 32 µg/mL (≈ 46 µM); MIC E.coli in the presence of 4% bovine serum albumin (E.coli CAN-ICU 63074): 256 µg/mL; MIC S.pneumoniae (S.pneumoniae ATCC 49619): 64 µg/mL (≈ 91.9 µM); MIC S.pneumoniae in the presence of 4% bovine serum albumin (S.pneumoniae ATCC 49619): 512 µg/mL; MIC S. maltophilia [4]: 64 µg/mL (≈ 91.9 µM); MIC S. maltophilia in the presence of 4% bovine serum albumin [4]: 512 µg/mL; MIC S.aureus (S.aureus ATCC 29213): 16 µg/mL (≈ 23 µM); MIC S.aureus in the presence of 4% bovine serum albumin (S.aureus ATCC 29213): 128 µg/mL
